Experimental data as given in patent publication US8389573B2, “Glycyrrhetinic acid derivatives” (Wellington Laboratories Inc., priority 2006, dated 2013).

Assays:
[1] = test system: SW480 colon cancer cells; assay: Cell proliferation assay in SW480 cells; format: cell-based; conditions: Homo sapiens, read-out: IC50, growth inhibition / cell proliferation
Method: (§1) Human colon carcinoma cell lines SW480 and HT29 were provided by Dr. Stan Hamilton, M.D. Anderson Cancer Center (Houston, Tex.); SW-480 and HT-29 cells were maintained in Dulbecco's modified Eagle's medium nutrient mixture with Ham's F-12 (DMEM/Ham's F-12; Sigma-Aldrich, St. Louis, Mo.) with phenol red supplemented with 0.22% sodium bicarbonate, 0.011% sodium pyruvate, and 5% fetal bovine serum and 10 ml/l 100× antibiotic antimycotic solution (Sigma-Aldrich). Cells were maintained at 37° C. in the presence of 5% CO2.
(§2) SW480 and HT 29 Cells (2×10^4) were plated in 12-well plates, and media were replaced the next day with DMEM/Ham's F-12 media containing 2.5% charcoal-stripped FBS and either vehicle (DMSO) or the indicated ligand and dissolved in DMSO. Fresh media and compounds were added every 48 h. Cells were counted at the indicated times using a Coulter Z1 cell counter. Each experiment was done in triplicate, and results are expressed as means±S.E. for each determination

[2] = test system: HT-29 colon cancer cells; assay: Cell proliferation assay in HT-29 cells; format: cell-based; conditions: Homo sapiens, read-out: IC50, growth inhibition / cell proliferation
Method: as §1, §2

[3] = test system: Sp protein levels in RKO cells; assay: Sp protein expression (gel) in RKO cells; format: cell-based
[4] = test system: LNCaP human prostate carcinoma cells; assay: Cell proliferation assay in LNCaP cells; format: cell-based; conditions: 96 hr, read-out: IC50, inhibition of LNCaP cell growth
Method: Cell lines: LNCaP human prostate carcinoma cells were obtained from American Type Culture Collection (Manassas, Va.). Fetal bovine serum was obtained from JRH Biosciences, Lenexa, Kans. LNCaP cells were maintained in RPMI 1640 (Sigma Chemical, St. Louis, Mo.) supplemented with 0.22% sodium bicarbonate, 0.011% sodium pyruvate, 0.45% glucose, 0.24% HEPES, 10% FBS, and 10 mL/L of 100× antibiotic/antimycotic solution (Sigma). Cells were maintained at 37° C. in the presence of 5% CO2.
Cell Proliferation and DNA Fragmentation Assays: LNCaP prostate cancer cells (2×10^4 per well) were added to 12-well plates and allowed to attach for 24 hr. The medium was then changed to DMEM/Ham's F-12 media containing 2.5% charcoal-stripped FBS, and either vehicle (DMSO) or the indicated C-DIMs were added. Fresh medium and indicated compounds were added every 48 hr, and cells were then trypsinized and counted after 2, 4, and 6 days using a Coulter Z1 cell counter (Beckman Coulter, Fullerton, Calif.). Each experiment was done in triplicate, and results are expressed as means±S.E. for each set of three experiments. The DNA fragmentation assay was performed using a BioVision Apoptotic DNA ladder extraction kit (BioVision, Mountain View, Calif.) according to the manufacturer's protocol.

[5] = test system: p21 promoter; assay: p21 promoter construct luciferase assay in LNCaP cells; format: cell-based; conditions: 1-5 μM
[6] = test system: PSA mRNA; assay: Real-time PCR of PSA mRNA in LNCaP cells; format: cell-based, human; conditions: 12 or 18 hr
Method: Real-Time PCR: Total RNA was isolated using the RNeasy Protect Mini kit (QIAGEN, Valencia, Calif.) according to the manufacturer's protocol. RNA was eluted with 30 μl of RNasefree water and stored at −80° C. RNA was reverse transcribed using Superscript II reverse transcriptase (Invitrogen) according to the manufacturer's protocol. cDNA was prepared from the LNCaP cell line using a combination of oligodeoxythymidylic acid and dNTP mix (Applied Biosystems, Foster City, Calif.) and Superscript II (Invitrogen). Each PCR was carried out in triplicate in a 25-μl volume using SYBR Green Master mix (Applied Biosystems) for 15 min at 95° C. for initial denaturing, followed by 40 cycles of 95° C. for 30 s and 60° C. for 1 min in the ABI Prism 7700 sequence detection system (Applied Biosystems). The ABI Dissociation Curves software was used after a brief thermal protocol (95° C. 15 s and 60° C. 20 s, followed by a slow ramp to 95° C.) to control for multiple species in each PCR amplification. The comparative CT method was used for relative quantitation of samples. Values for each gene were normalized to expression levels of TATA-binding protein. Primers were purchased from Integrated DNA Technologies (Coralville, Iowa). The sequences of the primers used for reverse transcription-PCR were as follows: AR forward, 5′-GTA CCC TGG CGG CAT GGT-3′ [SEQ ID NO: 1] and AR reverse, 5′-CCCATTTCGCTTTTGACACA-3′ [SEQ ID NO: 2]; PSA forward, 5′-GCATTGAACCAGAGGAGTTCTTG-3′ [SEQ ID NO: 3] and PSA reverse, 5′-TTG CGC ACA CAC GTC ATT G-3′ [SEQ ID NO: 4]; and TATA-binding protein forward, 5′-TGCACAGGAGCCAAGAGTGAA-3′ [SEQ ID NO: 5] and reverse, 5′-CACATCACAGCTCCCCACCA-3′ [SEQ ID NO: 6].

- IC50 [1]: 200 to 500 nM
- IC50 [2]: 200 to 500 nM
- IC50 [4]: ~1000 nM
Compound: COC(=O)[C@@]1(C)CC[C@]2(C)CC[C@]3(C)C(=CC(=O)[C@@H]4[C@@]5(C)C=C(C#N)C(=O)C(C)(C)[C@@H]5CC[C@]43C)[C@@H]2C1 [β-CDODA-Me, Methyl 2-cyano-3,11-dioxo-18β-oleana-1,12-dien-30-oate]
- Sp protein expression [3]: decreases Sp protein expression
- VEGF protein expression [3]: decreased VEGF protein expression
- decrease of Sp protein expression with T007 or proteasome inhibitors [3]: not reversed
- luciferase activity of p21 promoter constructs [5]: induces luciferase activity
- PSA mRNA levels [6]: downregulation of PSA mRNA levels
- PSA mRNA response after cotreatment with T007 [6]: not inhibited
- downregulation of PSA mRNA levels after cotreatment with cycloheximide [6]: significantly inhibited
